Experiments:
Assay type in all cases: in vivo
Puccinia recondita = test: Brown Rust (PUCCRT), protectant spray test on wheat seedlings; settings: wheat (cultivar Monon), sprayed to run off at 100 ppm, inoculated after 24 hours
Leptosphaeria nodorum = test: Glume Blotch of Wheat (LEPTNO), protectant spray test on wheat seedlings; settings: wheat (cultivar Monon), sprayed to run off at 100 ppm, inoculated after 24 hours
Phytophthora infestans = settings: tomatoes (cultivar Rutgers), sprayed to run off at 100 ppm, inoculated after 24 hours
Erysiphe graminis = test: Powdery Mildew of Wheat (ERYSGT), protectant spray test on wheat seedlings; settings: wheat (cultivar Monon), sprayed to run off at 100 ppm, inoculated after 24 hours

| SMILES | PUCCRT control of plant disease (Puccinia recondita) | LEPTNO control of plant disease (Leptosphaeria nodorum) | PHYTIN control of plant disease (Phytophthora infestans) | ERYSGT control of plant disease (Erysiphe graminis) |
| --- | --- | --- | --- | --- |
| CNC(=O)C(=NOC)c1ccccc1COc1ncc(C(O)C2CCCCC2)cc1Cl (centres unmarked) [Example 87] | ++ (++ = 75-100% control of plant disease) | ++ (++ = 75-100% control of plant disease) | ++ (++ = 75-100% control of plant disease) | ++ (++ = 75-100% control of plant disease) |
| CNC(=O)C(=NOC)c1ccccc1COc1ncc(C(OC(C)=O)c2ccccc2C(F)(F)F)cc1Cl (centres unmarked) [Example 88] | ++ (++ = 75-100% control of plant disease) | ++ (++ = 75-100% control of plant disease) | ++ (++ = 75-100% control of plant disease) | ++ (++ = 75-100% control of plant disease) |
| CNC(=O)C(=NOC)c1ccccc1COc1ncc(C(C)Oc2ccc(OC)cc2)cc1Cl (centres unmarked) [Example 89] | ++ (++ = 75-100% control of plant disease) | ++ (++ = 75-100% control of plant disease) | ++ (++ = 75-100% control of plant disease) | ++ (++ = 75-100% control of plant disease) |
| CCC(O)c1cnc(OCc2ccccc2C(=NOC)C(=O)NC)c(Cl)c1 (centres unmarked) [Example 90] | ++ (++ = 75-100% control of plant disease) | + (+ = 25-74% control of plant disease) | ++ (++ = 75-100% control of plant disease) | ++ (++ = 75-100% control of plant disease) |
| CCC(OC(C)=O)c1cnc(OCc2ccccc2C(=NOC)C(=O)NC)c(Cl)c1 (centres unmarked) [Example 91] | ++ (++ = 75-100% control of plant disease) | ++ (++ = 75-100% control of plant disease) | ++ (++ = 75-100% control of plant disease) | ++ (++ = 75-100% control of plant disease) |
| CNC(=O)C(=NOC)c1ccccc1COc1ncc(C(OC(C)=O)c2ccc(C)cc2C)cc1Cl (centres unmarked) [Example 92] | ++ (++ = 75-100% control of plant disease) | ++ (++ = 75-100% control of plant disease) | ++ (++ = 75-100% control of plant disease) | ++ (++ = 75-100% control of plant disease) |
| CNC(=O)C(=NOC)c1ccccc1COc1ncc(C(O)c2cccc(F)c2)cc1Cl (centres unmarked) [Example 93] | ++ (++ = 75-100% control of plant disease) | ++ (++ = 75-100% control of plant disease) | ++ (++ = 75-100% control of plant disease) | ++ (++ = 75-100% control of plant disease) |
| CNC(=O)C(=NOC)c1ccccc1COc1ncc(C(O)(COS(=O)(=O)c2ccc(C)cc2)c2ccccc2)cc1Cl (centres unmarked) [Example 94] | ++ (++ = 75-100% control of plant disease) | ++ (++ = 75-100% control of plant disease) | ++ (++ = 75-100% control of plant disease) | ++ (++ = 75-100% control of plant disease) |
| CNC(=O)C(=NOC)c1ccccc1COc1ncc(C(OC(C)=O)c2ccc(OC)cc2)cc1Cl (centres unmarked) [Example 95] | ++ (++ = 75-100% control of plant disease) | ++ (++ = 75-100% control of plant disease) | ++ (++ = 75-100% control of plant disease) | ++ (++ = 75-100% control of plant disease) |
| CNC(=O)C(=NOC)c1ccccc1COc1ncc(C(OC(C)=O)c2cccc(F)c2)cc1Cl (centres unmarked) [Example 96] | ++ (++ = 75-100% control of plant disease) | ++ (++ = 75-100% control of plant disease) | ++ (++ = 75-100% control of plant disease) | ++ (++ = 75-100% control of plant disease) |
| CNC(=O)C(=NOC)c1ccccc1COc1ncc(C(C)OCc2ccccc2OC)cc1Cl (centres unmarked) [Example 97] | ++ (++ = 75-100% control of plant disease) | ++ (++ = 75-100% control of plant disease) | − (− = 0-24% control of plant disease) | ++ (++ = 75-100% control of plant disease) |
| CNC(=O)C(=NOC)c1ccccc1COc1ncc(C(OC(C)=O)c2ccccc2)cc1C (centres unmarked) [Example 98] | ++ (++ = 75-100% control of plant disease) | ++ (++ = 75-100% control of plant disease) | ++ (++ = 75-100% control of plant disease) | ++ (++ = 75-100% control of plant disease) |
| CNC(=O)C(=NOC)c1ccccc1COc1ncc(C(OC)c2ccccc2F)cc1Cl (centres unmarked) [Example 99] | ++ (++ = 75-100% control of plant disease) | ++ (++ = 75-100% control of plant disease) | − (− = 0-24% control of plant disease) | ++ (++ = 75-100% control of plant disease) |
| CNC(=O)C(=NOC)c1ccccc1COc1ncc(C(O)c2ccc(Oc3ccccc3)cc2)cc1Cl (centres unmarked) [Example 100] | ++ (++ = 75-100% control of plant disease) | ++ (++ = 75-100% control of plant disease) | ++ (++ = 75-100% control of plant disease) | ++ (++ = 75-100% control of plant disease) |
| CNC(=O)C(=NOC)c1ccccc1COc1ncc(C(OCc2ccc(OC)cc2)c2ccccc2)cc1Cl (centres unmarked) [Example 101] | ++ (++ = 75-100% control of plant disease) | + (+ = 25-74% control of plant disease) | ++ (++ = 75-100% control of plant disease) | ++ (++ = 75-100% control of plant disease) |
| CNC(=O)C(=NOC)c1ccccc1COc1ncc(C(O)c2ccc(C(F)(F)F)cc2)cc1Cl (centres unmarked) [Example 102] | ++ (++ = 75-100% control of plant disease) | ++ (++ = 75-100% control of plant disease) | ++ (++ = 75-100% control of plant disease) | ++ (++ = 75-100% control of plant disease) |
| CNC(=O)C(=NOC)c1ccccc1COc1ncc(C(O)c2cccc3ccccc23)cc1Cl (centres unmarked) [Example 103] | ++ (++ = 75-100% control of plant disease) | ++ (++ = 75-100% control of plant disease) | ++ (++ = 75-100% control of plant disease) | + (+ = 25-74% control of plant disease) |
| CNC(=O)C(=NOC)c1ccccc1COc1ncc(C(O)c2ccccn2)cc1Cl (centres unmarked) [Example 105] | ++ (++ = 75-100% control of plant disease) | ++ (++ = 75-100% control of plant disease) | ++ (++ = 75-100% control of plant disease) | ++ (++ = 75-100% control of plant disease) |
| CNC(=O)C(=NOC)c1ccccc1COc1ncc(C(OC(C)=O)c2cccc(C)c2)cc1Cl (centres unmarked) [Example 106] | ++ (++ = 75-100% control of plant disease) | ++ (++ = 75-100% control of plant disease) | ++ (++ = 75-100% control of plant disease) | ++ (++ = 75-100% control of plant disease) |
| CNC(=O)C(=NOC)c1ccccc1COc1ncc(C(COC(C)=O)(OC(C)=O)c2ccccc2)cc1Cl (centres unmarked) [Example 107] | ++ (++ = 75-100% control of plant disease) | ++ (++ = 75-100% control of plant disease) | ++ (++ = 75-100% control of plant disease) | ++ (++ = 75-100% control of plant disease) |
| CNC(=O)C(=NOC)c1ccccc1COc1ncc(C(OC(C)=O)c2ccccn2)cc1Cl (centres unmarked) [Example 108] | ++ (++ = 75-100% control of plant disease) | ++ (++ = 75-100% control of plant disease) | ++ (++ = 75-100% control of plant disease) | ++ (++ = 75-100% control of plant disease) |
| CNC(=O)C(=NOC)c1ccccc1COc1ncc(C(O)c2ccsc2)cc1Cl (centres unmarked) [Example 109] | ++ (++ = 75-100% control of plant disease) | ++ (++ = 75-100% control of plant disease) | ++ (++ = 75-100% control of plant disease) | ++ (++ = 75-100% control of plant disease) |
| CNC(=O)C(=NOC)c1ccccc1COc1ncc(C(O)c2ccc(OC)c(OC)c2)cc1Cl (centres unmarked) [Example 110] | ++ (++ = 75-100% control of plant disease) | ++ (++ = 75-100% control of plant disease) | ++ (++ = 75-100% control of plant disease) | ++ (++ = 75-100% control of plant disease) |
